Measured values published in paper PMC4713029 (Nuclear medicine and biology, 2011).

Assays:
[1] = tested on: s.c. pheochromocytoma tumors (MPC cells); experiment: [^18F]-DA and [^18F]-DOPA PET in mice with subcutaneous pheochromocytoma; settings: for SUVmax (mean±S.E.M.), s.c. tumors <5 mm / SUVmax (mean±S.E.M.), s.c. tumors >5 mm / SUVmax in tumor sample s.c. 1 / SUVmax in tumor sample s.c. 2 / SUVmax in tumor sample s.c. 3 / TLR for s.c. tumors (range over tumor size) / TLR, s.c. tumors <5 mm / TLR, s.c. tumors >5 mm / TBR, s.c. tumors <5 mm / TBR, s.c. tumors >5 mm: 60–70 min after administration; for TBR, s.c. tumors <5 mm / TBR, s.c. tumors >5 mm: muscle as background; for number of subcutaneous tumors localized by PET: necropsy 4 in 4 mice
[2] = tested on: organ metastatic pheochromocytoma lesions (MPC cells); experiment: [^18F]-DA and [^18F]-DOPA PET in mice with organ metastatic pheochromocytoma; settings: for TBR (tumor-to-background ratio), liver tumors <3 mm / TBR, adrenal tumors >3 mm / TBR, liver tumors >3 mm / TBR, ovary tumors >3 mm: muscle as background; for SUVmax in tumor sample Adrenal 1: sample also immunostained; for SUVmax in liver lesions, the first week / SUVmax in liver lesions, the second week: liver lesions imaged once a week for two weeks; for optimal time for lesion detection after administration: liver lesions vs liver background, dynamic PET up to 70 min; for number of ovary tumors localized by PET: necropsy 4 in 4 mice; for number of lung tumors localized by PET: necropsy >20 in 2 mice
[3] = tested on: pheochromocytoma animal model with extensive liver and other organ lesions; format: in vivo; settings: preliminary experiments
[4] = cited from earlier work
[5] = Fig. 3G, 60–70 min after injection

NCCc1cc(O)c(O)cc1[18F] [[^18F]-DA, [^18F]-6-fluorodopamine]
SUVmax (mean±S.E.M.), s.c. tumors <5 mm [1]: 0.31±0.02
SUVmax (mean±S.E.M.), s.c. tumors >5 mm [1]: 0.35±0.12
SUVmax in tumor sample s.c. 1 [1]: — (A dash sign “—” presents SUVmax values less than 0.3 for both [^18F]-DA and [^18F]-DOPA)
SUVmax in tumor sample s.c. 2 [1]: — (A dash sign “—” presents SUVmax values less than 0.3 for both [^18F]-DA and [^18F]-DOPA)
SUVmax in tumor sample s.c. 3 [1]: — (A dash sign “—” presents SUVmax values less than 0.3 for both [^18F]-DA and [^18F]-DOPA)
TLR for s.c. tumors (range over tumor size) [1]: 0.22-0.27
TLR, s.c. tumors <5 mm [1]: 0.22
TLR, s.c. tumors >5 mm [1]: 0.27
TBR, s.c. tumors <5 mm [1]: 1.72
TBR, s.c. tumors >5 mm [1]: 1.94
SUVmax in large s.c. tumor, representative animal [1, 5]: 0.35
SUVmax in muscle (nontarget tissue), representative animal [1, 5]: 0.31
number of subcutaneous tumors localized by PET ([1]; four mice): 0
SUVmax (mean±S.E.M.), adrenal tumors >3 mm ([2]; 60–70 min after administration): 2.18±0.39
SUVmax (mean±S.E.M.), kidney ([2]; 60–70 min after administration): 2.41±0.45
SUVmax (mean±S.E.M.), liver ([2]; 60–70 min after administration): 0.88±0.11
SUVmax (mean±S.E.M.), liver tumors <3 mm ([2]; 60–70 min after administration): 1.61±0.17
SUVmax (mean±S.E.M.), liver tumors >3 mm ([2]; 60–70 min after administration): 2.49±0.08
SUVmax (mean±S.E.M.), muscle (background) ([2]; 60–70 min after administration): 0.31±0.02
SUVmax (mean±S.E.M.), ovary tumors >3 mm ([2]; 60–70 min after administration): 1.99±0.27
SUVmax in tumor sample Adrenal 2 ([2]; 60–70 min after administration): 1.98
SUVmax in tumor sample Bone ([2]; 60–70 min after administration): — (A dash sign “—” presents SUVmax values less than 0.3 for both [^18F]-DA and [^18F]-DOPA)
SUVmax in tumor sample Liver 1 ([2]; 60–70 min after administration): 2.46
SUVmax in tumor sample Liver 2 ([2]; 60–70 min after administration): 1.89
SUVmax in tumor sample Liver 3 ([2]; 60–70 min after administration): — (A dash sign “—” presents SUVmax values less than 0.3 for both [^18F]-DA and [^18F]-DOPA)
SUVmax in tumor sample Lung ([2]; 60–70 min after administration): — (A dash sign “—” presents SUVmax values less than 0.3 for both [^18F]-DA and [^18F]-DOPA)
SUVmax in tumor sample Ovary ([2]; 60–70 min after administration): 1.92
TLR (tumor-to-liver ratio), liver tumors <3 mm ([2]; 60–70 min after administration): 1.83
TLR for liver lesions (range depending on tumor size) ([2]; 60–70 min after administration): 1.83–2.83
TLR, adrenal tumors >3 mm ([2]; 60–70 min after administration): 2.47
TLR, liver tumors >3 mm ([2]; 60–70 min after administration): 2.83
TLR, ovary tumors >3 mm ([2]; 60–70 min after administration): 2.26
TBR (tumor-to-background ratio), liver tumors <3 mm ([2]; 60–70 min after administration): 5.19
TBR, adrenal tumors >3 mm ([2]; 60–70 min after administration): 7.03
TBR, liver tumors >3 mm ([2]; 60–70 min after administration): 8.03
TBR, ovary tumors >3 mm ([2]; 60–70 min after administration): 6.41
SUVmax in tumor sample Adrenal 1 ([2]; 60–70 min after administration): 2.15
SUVmax time–activity course, liver lesions smaller than 3 mm ([2]; dynamic PET 10–70 min, Fig. 1): remained relatively stable
SUVmax time–activity course, liver tumors larger than 3 mm ([2]; dynamic PET 10–70 min, Fig. 1): decrease in SUVmax over time
SUVmax in liver lesions, the first week [2]: 1.85±0.199
SUVmax in liver lesions, the second week [2]: 1.16±0.07
optimal time for lesion detection after administration [2]: 60 to 70 min
number of mice with adrenal tumors localized by PET ([2]; week 5, nine mice): 4 mice
number of mice with liver tumors localized by PET ([2]; week 5, nine mice): 8 mice
number of mice with ovary tumors localized by PET ([2]; week 5, nine mice): 4 in 4 mice
number of ovary tumors localized by PET ([2]; week 5, nine mice): 4 in 4 mice
number of lung tumors localized by PET ([2]; week 5, nine mice): 0

COc1cc2c(cc1OC)C1CC(=O)C(CC(C)C)CN1CC2 (stereo not shown) [tetrabenazine]
side effects on administration in tumor-bearing animals [3]: side effects were in most cases fatal

COC(=O)[C@H]1[C@H]2C[C@@H]3c4[nH]c5cc(OC)ccc5c4CCN3C[C@H]2C[C@@H](OC(=O)c2cc(OC)c(OC)c(OC)c2)[C@@H]1OC [reserpine]
side effects on administration in tumor-bearing animals [3]: side effects were in most cases fatal

NCCc1ccc(O)c(O)c1 [dopamine]
half-life in circulation [4]: about 1 minute

CNCCCN1c2ccccc2CCc2ccccc21 [desipramine]
side effects on administration in tumor-bearing animals [3]: side effects were in most cases fatal

N[C@@H](Cc1cc(O)c(O)cc1[18F])C(=O)O [[^18F]-DOPA, [^18F]-L-6-fluoro-3,4-dihydroxyphenylalanine]
SUVmax (mean±S.E.M.), s.c. tumors <5 mm [1]: 2.88±0.88
SUVmax (mean±S.E.M.), s.c. tumors >5 mm [1]: 2.0±0.06
SUVmax in tumor sample s.c. 1 [1]: 1.88
SUVmax in tumor sample s.c. 2 [1]: 2.25
SUVmax in tumor sample s.c. 3 [1]: 2.09
TLR for s.c. tumors (range over tumor size) [1]: 1.56-2.24
TLR, s.c. tumors <5 mm [1]: 2.24
TLR, s.c. tumors >5 mm [1]: 1.56
TBR, s.c. tumors <5 mm [1]: 7.2
TBR, s.c. tumors >5 mm [1]: 5.0
SUVmax in large s.c. tumor, representative animal [1, 5]: 2
number of mice with subcutaneous tumors localized by PET ([1]; four mice): 4 in 4 mice
number of subcutaneous tumors localized by PET ([1]; four mice): 4 in 4 mice
SUVmax (mean±S.E.M.), adrenal tumors >3 mm ([2]; 60–70 min after administration): 6.61±0.64
SUVmax (mean±S.E.M.), kidney ([2]; 60–70 min after administration): 1.73±0.34
SUVmax (mean±S.E.M.), liver ([2]; 60–70 min after administration): 1.33±0.14
SUVmax (mean±S.E.M.), liver tumors <3 mm ([2]; 60–70 min after administration): 3.01±0.27
SUVmax (mean±S.E.M.), liver tumors >3 mm ([2]; 60–70 min after administration): 3.61±0.19
SUVmax (mean±S.E.M.), muscle (background) ([2]; 60–70 min after administration): 0.29±0.02
SUVmax (mean±S.E.M.), ovary tumors >3 mm ([2]; 60–70 min after administration): 2.59±0.32
SUVmax in tumor sample Adrenal 2 ([2]; 60–70 min after administration): 5.79
SUVmax in tumor sample Bone ([2]; 60–70 min after administration): 1.42
SUVmax in tumor sample Liver 1 ([2]; 60–70 min after administration): 3.31
SUVmax in tumor sample Liver 2 ([2]; 60–70 min after administration): 2.79
SUVmax in tumor sample Liver 3 ([2]; 60–70 min after administration): 3.24
SUVmax in tumor sample Lung ([2]; 60–70 min after administration): 1.15
SUVmax in tumor sample Ovary ([2]; 60–70 min after administration): 3.05
TLR (tumor-to-liver ratio), liver tumors <3 mm ([2]; 60–70 min after administration): 2.26
TLR for liver lesions (range depending on tumor size) ([2]; 60–70 min after administration): 2.26–2.71
TLR, liver tumors >3 mm ([2]; 60–70 min after administration): 2.71
TBR (tumor-to-background ratio), liver tumors <3 mm ([2]; 60–70 min after administration): 10.38
TBR, adrenal tumors >3 mm ([2]; 60–70 min after administration): 22.79
TBR, liver tumors >3 mm ([2]; 60–70 min after administration): 12.45
TBR, ovary tumors >3 mm ([2]; 60–70 min after administration): 8.93
SUVmax in tumor sample Adrenal 1 ([2]; 60–70 min after administration): 6.46
SUVmax time–activity course, liver lesions regardless of tumor size ([2]; dynamic PET 10–70 min, Fig. 1): remained stable over time
SUVmax in liver lesions, the first week [2]: 3.023±0.22
SUVmax in liver lesions, the second week [2]: 2.88±0.12
optimal time for lesion detection after administration [2]: 60 to 70 min
number of mice with adrenal tumors localized by PET ([2]; week 5, nine mice): 5 mice
number of mice with liver tumors localized by PET ([2]; week 5, nine mice): 9 mice
number of mice with lung tumors localized by PET ([2]; week 5, nine mice): 1 in 1 mouse
number of mice with ovary tumors localized by PET ([2]; week 5, nine mice): 4 in 4 mice
number of ovary tumors localized by PET ([2]; week 5, nine mice): 4 in 4 mice
number of adrenal tumors localized by PET ([2]; week 5, nine mice, necropsy 18 in 9 mice): 9
number of lung tumors localized by PET ([2]; week 5, nine mice): 1 in 1 mouse
